Laboratory results published in ChEMBL document CHEMBL5154810, “Development of Potent Immune Modulators Targeting Stimulator of Interferon Genes Receptor” (J Med Chem, 2022).
The source made the active and inactive calls. The rule behind the calls is not given here.

What was measured:
[1] = biological target: Cytochrome P450 2D6 (Homo sapiens, UniProt P10635); test: Inhibition of CYP2D6 in human liver microsomes using dextromethorphan as cocktail probe substrate preincubated for 5 mins followed by NADPH addition and meaured after 30 mins by HPLC-MS/MS analysis; type: ADME, Microsome
Cytochrome P450 2D6, sequence (P10635 whole entry): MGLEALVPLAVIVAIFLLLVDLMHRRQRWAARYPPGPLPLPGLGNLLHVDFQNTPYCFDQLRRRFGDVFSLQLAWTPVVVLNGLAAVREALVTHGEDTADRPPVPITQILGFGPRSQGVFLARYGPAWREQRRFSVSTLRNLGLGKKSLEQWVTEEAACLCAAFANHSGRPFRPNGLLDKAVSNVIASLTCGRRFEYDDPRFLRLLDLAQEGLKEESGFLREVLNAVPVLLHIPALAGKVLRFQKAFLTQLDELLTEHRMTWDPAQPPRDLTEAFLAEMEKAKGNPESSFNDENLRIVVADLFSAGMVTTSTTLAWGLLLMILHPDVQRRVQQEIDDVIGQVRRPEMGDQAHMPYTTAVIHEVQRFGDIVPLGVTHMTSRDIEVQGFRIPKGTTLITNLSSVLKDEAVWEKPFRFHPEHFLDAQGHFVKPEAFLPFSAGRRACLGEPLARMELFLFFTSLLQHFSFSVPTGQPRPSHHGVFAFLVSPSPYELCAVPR

[2] = biological target: T1, Cytochrome P450 1A2 (Homo sapiens, UniProt P05177); test: Inhibition of CYP1A2 in human liver microsomes using phenacetin as cocktail probe substrate preincubated for 5 mins followed by NADPH addition and measured after 30 mins by HPLC-MS/MS analysis; type: ADME, Microsome
T1 sequence (P05177 whole entry): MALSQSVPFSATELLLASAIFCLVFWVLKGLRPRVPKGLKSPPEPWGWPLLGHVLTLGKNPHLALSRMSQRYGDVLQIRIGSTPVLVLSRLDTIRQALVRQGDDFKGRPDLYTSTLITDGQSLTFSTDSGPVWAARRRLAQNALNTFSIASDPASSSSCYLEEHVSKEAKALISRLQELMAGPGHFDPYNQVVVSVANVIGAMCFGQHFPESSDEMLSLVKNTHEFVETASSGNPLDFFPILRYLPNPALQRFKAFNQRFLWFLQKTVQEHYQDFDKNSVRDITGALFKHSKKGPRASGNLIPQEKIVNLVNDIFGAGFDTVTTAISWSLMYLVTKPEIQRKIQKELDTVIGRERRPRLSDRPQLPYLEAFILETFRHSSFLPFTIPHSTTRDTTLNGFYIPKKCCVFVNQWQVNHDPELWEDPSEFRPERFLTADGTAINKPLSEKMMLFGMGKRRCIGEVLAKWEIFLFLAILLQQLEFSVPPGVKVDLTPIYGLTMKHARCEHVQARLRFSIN

[3] = tested on: THP-1; test: Upregulation of OAS1 in human THP-1 cells at 100 nM measured after 6 to 18 hrs by RT-PCR analysis; type: functional, cell-based; conditions: time 6-18 hrs
[4] = biological target: T2, Stimulator of interferon genes protein (Homo sapiens, UniProt Q86WV6); test: Activation of STING mediated immune response in human THP-1 cells assessed as induction of IFNbeta secretion measured after 24 hrs by ELISA; type: cell-based
T2 sequence (Q86WV6 whole entry): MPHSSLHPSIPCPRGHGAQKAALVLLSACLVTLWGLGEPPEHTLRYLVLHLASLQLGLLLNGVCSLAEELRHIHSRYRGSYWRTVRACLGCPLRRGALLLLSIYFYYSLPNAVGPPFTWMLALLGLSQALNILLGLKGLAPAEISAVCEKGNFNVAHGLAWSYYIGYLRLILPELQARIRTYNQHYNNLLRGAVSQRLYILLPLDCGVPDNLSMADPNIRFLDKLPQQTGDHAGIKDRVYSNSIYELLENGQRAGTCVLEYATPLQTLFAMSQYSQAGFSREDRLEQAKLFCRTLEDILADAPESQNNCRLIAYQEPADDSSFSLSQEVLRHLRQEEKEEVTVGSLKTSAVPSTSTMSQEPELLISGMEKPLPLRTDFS

[5] = Toxicity in BALB/c mouse xenografted with mouse CT26 cells assessed as effect on body weight at 1.5 mg/kg, iv measured after 8 days; type: organism-based; conditions: in vivo, 192 h, time 8 day
[6] = tested on: RAW264.7; test: Activation of NF-kappaB mediated pro-inflammatory effector proteins in mouse RAW264.7 cells at 100 to 500 nM for incubated for 3 hrs by western blot analysis; type: cell-based; conditions: filed as activator, dose 100-500 nM
[7] = Toxicity in BALB/c syngenic mouse bearing CT26 cells assessed as effect on body weight at 0.015 to 1.5 mg/kg, iv measured every 2 to 3 days for 17 days; type: organism-based; conditions: in vivo, 408 h, dose 0.015-1.5 mg/kg, time 17 day
[8] = tested on: THP-1; test: Upregulation of IFIT3 in human THP-1 cells at 100 nM measured after 6 to 18 hrs by RT-PCR analysis; type: functional, cell-based; conditions: time 6-18 hrs
[9] = biological target: Cytochrome P450 3A4 (Homo sapiens, UniProt P08684); test: Inhibition of CYP3A4 in human liver microsomes using […] as cocktail probe substrate preincubated for 5 mins followed by NADPH addition and measured after 30 mins by HPLC-MS/MS analysis; type: ADME, Microsome
Cytochrome P450 3A4, sequence (P08684 whole entry): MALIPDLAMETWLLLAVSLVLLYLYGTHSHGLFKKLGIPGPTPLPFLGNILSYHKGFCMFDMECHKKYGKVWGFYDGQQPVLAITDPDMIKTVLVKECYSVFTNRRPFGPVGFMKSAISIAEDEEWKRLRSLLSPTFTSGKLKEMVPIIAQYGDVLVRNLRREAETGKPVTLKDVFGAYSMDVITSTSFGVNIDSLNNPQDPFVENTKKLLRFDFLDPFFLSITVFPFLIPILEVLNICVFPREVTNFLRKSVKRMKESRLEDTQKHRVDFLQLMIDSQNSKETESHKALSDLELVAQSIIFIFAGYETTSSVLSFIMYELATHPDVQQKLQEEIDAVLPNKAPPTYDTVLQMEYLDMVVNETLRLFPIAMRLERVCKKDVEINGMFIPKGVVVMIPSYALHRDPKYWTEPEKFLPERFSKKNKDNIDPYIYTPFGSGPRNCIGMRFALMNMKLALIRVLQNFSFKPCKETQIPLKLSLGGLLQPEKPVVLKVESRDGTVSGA

[10] = biological target: Nuclear factor NF-kappa-B complex (Homo sapiens) (UniProt Q00653+P19838+Q04206); test: Activation of NF-kappaB mediated pro-inflammatory effector proteins in human THP-1 cells at 2 to 10 nM incubated for 4 hrs by western blot analysis; type: cell-based; conditions: filed as activator, dose 2-10 nM
Nuclear factor NF-kappa-B complex (Homo sapiens), sequence (P19838 whole entry, looked up): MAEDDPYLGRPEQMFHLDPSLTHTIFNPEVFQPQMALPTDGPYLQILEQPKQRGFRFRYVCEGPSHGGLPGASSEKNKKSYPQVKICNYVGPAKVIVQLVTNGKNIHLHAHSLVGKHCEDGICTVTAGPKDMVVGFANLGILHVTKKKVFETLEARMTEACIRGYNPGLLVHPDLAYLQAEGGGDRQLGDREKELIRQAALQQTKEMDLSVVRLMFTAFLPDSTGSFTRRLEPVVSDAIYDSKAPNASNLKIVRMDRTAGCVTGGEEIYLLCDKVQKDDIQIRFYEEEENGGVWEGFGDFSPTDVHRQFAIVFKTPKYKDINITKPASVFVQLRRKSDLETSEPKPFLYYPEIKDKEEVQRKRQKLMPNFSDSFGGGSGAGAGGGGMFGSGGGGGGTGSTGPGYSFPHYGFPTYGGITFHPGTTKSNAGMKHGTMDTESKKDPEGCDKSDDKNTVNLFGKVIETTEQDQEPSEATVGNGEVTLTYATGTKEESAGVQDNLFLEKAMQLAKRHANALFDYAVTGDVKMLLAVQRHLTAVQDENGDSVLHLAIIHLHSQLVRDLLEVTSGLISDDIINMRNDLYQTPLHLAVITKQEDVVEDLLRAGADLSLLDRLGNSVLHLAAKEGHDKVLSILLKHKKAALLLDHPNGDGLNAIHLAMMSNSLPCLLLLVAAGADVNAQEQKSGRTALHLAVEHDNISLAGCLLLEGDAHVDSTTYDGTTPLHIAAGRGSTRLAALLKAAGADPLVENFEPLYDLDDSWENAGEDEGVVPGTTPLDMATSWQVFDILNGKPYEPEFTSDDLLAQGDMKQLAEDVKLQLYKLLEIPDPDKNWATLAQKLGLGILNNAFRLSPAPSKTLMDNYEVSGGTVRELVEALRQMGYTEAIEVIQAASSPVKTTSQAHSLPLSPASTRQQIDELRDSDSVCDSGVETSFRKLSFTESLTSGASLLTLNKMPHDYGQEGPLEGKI
Nuclear factor NF-kappa-B complex (Homo sapiens), sequence (Q00653 whole entry, looked up): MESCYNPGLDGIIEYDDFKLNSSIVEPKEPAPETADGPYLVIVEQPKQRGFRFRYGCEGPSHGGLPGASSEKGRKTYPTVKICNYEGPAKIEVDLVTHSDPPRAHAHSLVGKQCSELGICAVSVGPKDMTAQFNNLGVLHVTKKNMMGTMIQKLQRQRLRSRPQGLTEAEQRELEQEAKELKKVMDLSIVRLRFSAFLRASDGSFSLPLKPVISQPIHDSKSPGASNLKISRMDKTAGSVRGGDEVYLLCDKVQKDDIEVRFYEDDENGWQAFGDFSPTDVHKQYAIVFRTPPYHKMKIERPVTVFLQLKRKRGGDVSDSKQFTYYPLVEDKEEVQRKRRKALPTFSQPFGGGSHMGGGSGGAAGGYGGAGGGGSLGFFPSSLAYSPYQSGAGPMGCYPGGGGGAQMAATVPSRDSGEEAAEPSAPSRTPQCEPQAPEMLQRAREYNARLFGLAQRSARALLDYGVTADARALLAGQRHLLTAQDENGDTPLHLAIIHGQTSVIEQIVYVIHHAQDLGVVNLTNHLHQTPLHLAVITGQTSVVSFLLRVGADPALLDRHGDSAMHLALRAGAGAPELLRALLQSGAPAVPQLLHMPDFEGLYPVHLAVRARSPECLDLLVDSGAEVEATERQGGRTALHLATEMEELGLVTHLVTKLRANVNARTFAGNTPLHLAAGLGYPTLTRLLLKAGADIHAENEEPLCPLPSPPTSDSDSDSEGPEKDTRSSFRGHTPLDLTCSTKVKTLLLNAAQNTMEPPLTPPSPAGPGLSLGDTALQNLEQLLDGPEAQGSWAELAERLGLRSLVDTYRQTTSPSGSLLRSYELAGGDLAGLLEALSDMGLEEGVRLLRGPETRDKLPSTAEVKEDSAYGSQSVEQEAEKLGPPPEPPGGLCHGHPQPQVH
Nuclear factor NF-kappa-B complex (Homo sapiens), sequence (Q04206 whole entry, looked up): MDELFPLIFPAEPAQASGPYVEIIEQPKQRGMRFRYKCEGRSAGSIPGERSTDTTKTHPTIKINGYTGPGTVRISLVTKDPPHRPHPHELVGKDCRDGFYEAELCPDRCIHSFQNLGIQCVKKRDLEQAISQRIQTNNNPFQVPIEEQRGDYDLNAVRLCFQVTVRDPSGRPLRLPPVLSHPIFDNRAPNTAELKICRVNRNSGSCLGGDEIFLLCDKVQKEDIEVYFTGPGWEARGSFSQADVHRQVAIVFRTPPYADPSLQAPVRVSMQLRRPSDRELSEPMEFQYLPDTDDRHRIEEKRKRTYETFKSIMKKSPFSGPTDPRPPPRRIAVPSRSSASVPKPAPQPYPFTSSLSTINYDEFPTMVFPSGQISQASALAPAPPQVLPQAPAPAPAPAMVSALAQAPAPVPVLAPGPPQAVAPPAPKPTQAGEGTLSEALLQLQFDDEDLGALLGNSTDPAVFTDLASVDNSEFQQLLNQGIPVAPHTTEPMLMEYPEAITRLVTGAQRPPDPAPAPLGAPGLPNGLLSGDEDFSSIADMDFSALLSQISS

[11] = biological target: T3, Stimulator of interferon genes protein (Mus musculus) (UniProt Q3TBT3); test: Binding affinity to STING in mouse RAW264.7 assessed as thermal stabilization at 48 to 55 degC at 100 nM incubated for 4 hrs by western blotting based CETSA assay; type: cell-based; conditions: filed as activator
T3 sequence (whole entry): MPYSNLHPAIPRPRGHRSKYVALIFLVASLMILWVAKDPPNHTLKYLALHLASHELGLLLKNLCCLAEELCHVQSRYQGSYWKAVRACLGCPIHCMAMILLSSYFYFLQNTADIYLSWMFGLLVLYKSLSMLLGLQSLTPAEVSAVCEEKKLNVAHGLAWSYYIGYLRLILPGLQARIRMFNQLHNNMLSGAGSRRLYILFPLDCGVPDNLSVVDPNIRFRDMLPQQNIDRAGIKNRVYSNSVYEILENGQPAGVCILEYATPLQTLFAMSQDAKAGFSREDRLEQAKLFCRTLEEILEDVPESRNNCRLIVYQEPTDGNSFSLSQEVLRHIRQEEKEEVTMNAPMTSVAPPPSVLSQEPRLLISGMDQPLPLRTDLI

[12] = tested on: CT26; test: Antitumor immunity activity against mouse CT26 cells xenografted in BALB/c mouse model assessed as tumor growth inhibition at 1.5 mg/kg, iv measured after 8 days; type: functional, organism-based; conditions: time 8.0 day
[13] = tested on: THP-1; test: Upregulation of IFITM1 in human THP-1 cells at 100 nM measured after 6 to 18 hrs by RT-PCR analysis; type: functional, cell-based; conditions: time 6-18 hrs
[14] = tested on: CT26; test: Antitumor activity against CT26 cells injected in BALB/c syngenic mouse model assessed as tumor growth inhibition at 1.5 mg/kg, iv measured after 17 days; type: functional; conditions: CT26, 408 h, time 17 day, read-out: TGI
[15] = tested on: Mus musculus; test: Upregulation of IFN-beta in BALB/c mouse serum at 1.5 mg/kg, iv measured after 4 hrs by ELISA; type: functional, organism-based
[16] = Activation of IRF-mediated immune response in human THP1-Dual KO-STING cells co-expressing ISRE reporter assessed as normalized luciferase gene expression by measuring relative luciferase units at 50 uM incubated for 24 hrs by QUANTI Luc based microplate reader method; type: functional
[17] = Volume of distribution at steady state in BALB/c mouse at 3 mg/kg, iv by LC-MS/MS analysis; type: ADME, organism-based; conditions: in vivo, read-out: Vdss
[18] = AUCinfinity in BALB/c mouse at 3 mg/kg, iv by LC-MS/MS analysis; type: ADME, organism-based; set-up: time infinity, dose 3 mg/kg, route iv; conditions: in vivo
[19] = biological target: T2, Stimulator of interferon genes protein; test: Activation of STING pathway in human THP1-cells assessed as increase in STING phosphorylation at 2 nM incubated for 6 hrs by Western blotting analysis; type: cell-based; conditions: THP-1, filed as activator
[20] = tested on: THP-1; test: Upregulation of IRF7 in human THP-1 cells at 100 nM measured after 6 to 18 hrs by RT-PCR analysis; type: functional, cell-based; conditions: time 6-18 hrs
[21] = biological target: Voltage-gated inwardly rectifying potassium channel KCNH2 (Homo sapiens, UniProt Q12809); test: Inhibition of hERG by patch clamp assay; type: toxicity
Voltage-gated inwardly rectifying potassium channel KCNH2, sequence (Q12809 whole entry): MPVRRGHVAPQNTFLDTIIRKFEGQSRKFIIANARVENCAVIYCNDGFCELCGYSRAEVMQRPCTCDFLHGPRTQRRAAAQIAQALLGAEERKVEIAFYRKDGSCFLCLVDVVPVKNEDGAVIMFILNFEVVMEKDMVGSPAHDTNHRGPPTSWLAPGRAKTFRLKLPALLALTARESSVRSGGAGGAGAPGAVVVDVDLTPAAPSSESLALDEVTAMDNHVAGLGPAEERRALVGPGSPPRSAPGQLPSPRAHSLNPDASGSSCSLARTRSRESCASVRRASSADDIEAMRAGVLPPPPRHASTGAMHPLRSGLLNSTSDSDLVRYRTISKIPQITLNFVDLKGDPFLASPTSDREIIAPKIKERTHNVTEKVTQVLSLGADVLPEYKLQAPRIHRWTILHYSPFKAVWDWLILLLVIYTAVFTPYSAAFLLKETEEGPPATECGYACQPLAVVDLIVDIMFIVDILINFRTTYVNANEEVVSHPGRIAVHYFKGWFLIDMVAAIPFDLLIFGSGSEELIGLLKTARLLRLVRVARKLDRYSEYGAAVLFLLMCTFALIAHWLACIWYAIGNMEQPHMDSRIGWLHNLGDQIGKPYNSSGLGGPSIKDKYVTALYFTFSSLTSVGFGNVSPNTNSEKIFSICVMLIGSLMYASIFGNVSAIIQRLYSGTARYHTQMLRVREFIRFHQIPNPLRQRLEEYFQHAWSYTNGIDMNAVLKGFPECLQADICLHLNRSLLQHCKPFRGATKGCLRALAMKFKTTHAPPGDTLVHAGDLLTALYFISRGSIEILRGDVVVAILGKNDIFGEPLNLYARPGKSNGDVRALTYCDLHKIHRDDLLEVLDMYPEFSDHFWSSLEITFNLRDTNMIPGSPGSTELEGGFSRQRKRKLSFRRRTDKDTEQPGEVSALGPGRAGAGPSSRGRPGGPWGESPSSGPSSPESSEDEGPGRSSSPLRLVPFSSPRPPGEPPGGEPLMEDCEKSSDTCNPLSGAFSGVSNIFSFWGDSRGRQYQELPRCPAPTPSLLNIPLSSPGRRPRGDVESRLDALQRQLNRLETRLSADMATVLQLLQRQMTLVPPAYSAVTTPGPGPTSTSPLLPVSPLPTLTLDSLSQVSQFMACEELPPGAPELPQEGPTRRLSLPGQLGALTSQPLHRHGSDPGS

[22] = biological target: T2, Stimulator of interferon genes protein; test: Binding affinity to recombinant human His-tagged STING by measuring fluorescent signals in the presence of d2 labelled STING wild type ligand by HTRF based microplate reader analysis
[23] = Stability in human plasma assessed as parent compound remaining at 5 uM measured after 4 hrs by HPLC-MS/MS analysis; type: ADME, cell-free; conditions: read-out: Stability
[24] = tested on: THP-1; test: Upregulation of ISG15 in human THP-1 cells at 100 nM measured after 6 to 18 hrs by RT-PCR analysis; type: functional, cell-based; conditions: time 6-18 hrs

Structure (SMILES): CCn1nc(C)cc1C(=O)Nc1nc2cc(C(N)=O)cc(OC)c2n1C/C=C/Cn1c(NC(=O)c2cc(C)nn2CC)nc2cc(C(N)=O)cc(OCCCNC(=O)OC(C)(C)C)c21
- IC50 [1]: > 100 µM
- IC50 [2]: > 100 µM
- Activity [3]: Active
- EC50 [4]: 0.002 µM
- Activity ([4]; filed as activator, dose 0.12-2000 nM, DDE = dose-dependent effect): Dde
- Activity [5]: Non-Toxic
- Activity [6]: Active
- Activity [7]: Non-Toxic
- Activity [8]: Active
- IC50 [9]: 4.2 µM
- Activity [10]: Active
- Activity [11]: Active
- Activity [12]: Active
- Activity [13]: Active
- inhibition in vivo at 1.5 mg/kg [14]: 57%
- Activity [15]: Active
- RLU [16]: 1.1
- Vd [17]: 17.7 L/kg
- AUC [18]: 4780 ng·h/mL
- Activity [19]: Active
- Activity [20]: Active
- IC50 [21]: > 50 µM
- IC50 [22]: 0.0623 nM
- remaining at 4 h, 5 µM [23]: > 99%
- Activity [24]: Active
